The values that follow come from PubChem BioAssay AID1259407 (Chemical Carcinogenesis Research Information System (CCRIS), 2018).

In this data set the test system is CCRIS mutagenicity, Ames/micronucleus/aberration tests. Nature of the data set: CCRIS mutagenicity studies.
[1] abbreviates: Test System: AMES SALMONELLA TYPHIMURIUM, Strain/Indicator: TA98, Metabolic Activation: NONE, Method: STANDARD PLATE.
Where [2] appears, read: Test System: AMES SALMONELLA TYPHIMURIUM, Strain/Indicator: TA100, Metabolic Activation: NONE, Method: STANDARD PLATE.
Where [3] appears, read: Test System: AMES SALMONELLA TYPHIMURIUM, Strain/Indicator: TA98, Metabolic Activation: HAMSTER, LIVER, S-9, AROCLOR 1254 (10%), Method: PREINCUBATION
The mark [4] stands for this setting: Test System: AMES SALMONELLA TYPHIMURIUM, Strain/Indicator: TA98, Metabolic Activation: NONE, Method: PREINCUBATION
[5] abbreviates: Test System: AMES SALMONELLA TYPHIMURIUM, Strain/Indicator: TA98, Metabolic Activation: RAT, LIVER, S-9, AROCLOR 1254 (10%), Method: PREINCUBATION
[6] abbreviates: Test System: AMES SALMONELLA TYPHIMURIUM, Strain/Indicator: TA100, Metabolic Activation: HAMSTER, LIVER, S-9, AROCLOR 1254 (10%), Method: PREINCUBATION
[7] abbreviates: Test System: AMES SALMONELLA TYPHIMURIUM, Strain/Indicator: TA100, Metabolic Activation: NONE, Method: PREINCUBATION
Where [8] appears, read: Test System: AMES SALMONELLA TYPHIMURIUM, Strain/Indicator: TA100, Metabolic Activation: RAT, LIVER, S-9, AROCLOR 1254 (10%), Method: PREINCUBATION
The mark [9] stands for this setting: Test System: AMES SALMONELLA TYPHIMURIUM, Strain/Indicator: TA1535, Metabolic Activation: HAMSTER, LIVER, S-9, AROCLOR 1254 (10%), Method: PREINCUBATION
Where [10] appears, read: Test System: AMES SALMONELLA TYPHIMURIUM, Strain/Indicator: TA1535, Metabolic Activation: NONE, Method: PREINCUBATION
[11] abbreviates: Test System: AMES SALMONELLA TYPHIMURIUM, Strain/Indicator: TA1535, Metabolic Activation: RAT, LIVER, S-9, AROCLOR 1254 (10%), Method: PREINCUBATION
The mark [12] stands for this setting: Test System: AMES SALMONELLA TYPHIMURIUM, Strain/Indicator: TA1537, Metabolic Activation: HAMSTER, LIVER, S-9, AROCLOR 1254 (10%), Method: PREINCUBATION
[13] abbreviates: Test System: AMES SALMONELLA TYPHIMURIUM, Strain/Indicator: TA1537, Metabolic Activation: NONE, Method: PREINCUBATION
The mark [14] stands for this setting: Test System: AMES SALMONELLA TYPHIMURIUM, Strain/Indicator: TA1537, Metabolic Activation: RAT, LIVER, S-9, AROCLOR 1254 (10%), Method: PREINCUBATION
Where [15] appears, read: Test System: MOUSE LYMPHOMA, Strain/Indicator: L5178Y (TK+/TK-), Metabolic Activation: NONE, Method: SUSPENSION/PLATE.
The mark [16] stands for this setting: Test System: AMES SALMONELLA TYPHIMURIUM, Strain/Indicator: TA98, Metabolic Activation: S-9, Method: STANDARD PLATE.
Setting [17] is: Test System: AMES SALMONELLA TYPHIMURIUM, Strain/Indicator: TA100, Metabolic Activation: S-9, Method: STANDARD PLATE.
[18] abbreviates: Test System: AMES SALMONELLA TYPHIMURIUM, Strain/Indicator: TA100, Metabolic Activation: RAT, LIVER, S-9, AROCLOR 1254, Method: PREINCUBATION
Where [19] appears, read: Test System: AMES SALMONELLA TYPHIMURIUM, Strain/Indicator: TA100, Metabolic Activation: RAT, LIVER, S-9, AROCLOR 1254, Method: STANDARD PLATE.
Where [20] appears, read: Test System: AMES SALMONELLA TYPHIMURIUM, Strain/Indicator: TA98, Metabolic Activation: RAT, LIVER, S-9, PCB, Method: PREINCUBATION
Where [21] appears, read: Test System: AMES SALMONELLA TYPHIMURIUM, Strain/Indicator: TA100, Metabolic Activation: RAT, LIVER, S-9, PCB, Method: PREINCUBATION

The source made the active and inactive calls. The rule behind the calls is not given here.

For `CCCCc1c(N)ccc2ccccc12`, the mutagenic call is “inactive; negative” under setting [1]; “active; positive” (Test System: AMES SALMONELLA TYPHIMURIUM, Strain/Indicator: TA98, Metabolic Activation: RAT LIVER S-9, AROCLOR, Method: STANDARD PLATE); “inactive; negative” under setting [2]; “active; positive” (Test System: AMES SALMONELLA TYPHIMURIUM, Strain/Indicator: TA100, Metabolic Activation: RAT LIVER S-9, AROCLOR, Method: STANDARD PLATE).

`Nc1ccc(O)c(N)c1`: the mutagenic call reads like this: (End Point: IN VITRO CHROMOSOMAL ABERRATIONS, Test System: CHINESE HAMSTER OVARY CELLS, Metabolic Activation: NONE) “inactive; negative”; (End Point: IN VITRO CHROMOSOMAL ABERRATIONS, Test System: CHINESE HAMSTER OVARY CELLS, Metabolic Activation: RAT, LIVER, S-9, AROCLOR 1254) “inactive; negative”; under setting [3], “active; positive”; under setting [4], “inactive; negative”; under setting [5], “active; positive”; under setting [6], “inactive; negative”. Besides, the mutagenic call is, setting by setting: under setting [7], “inactive; negative”; under setting [8], “inactive; negative”; under setting [9], “inactive; negative”; under setting [10], “inactive; negative”; under setting [11], “inactive; negative”; under setting [12], “inactive; negative”. Also, the mutagenic call under setting [13] is “inactive; negative”, the mutagenic call under setting [14] was “inactive; negative” and the mutagenic call under setting [15] was “active; positive”.

Regarding `CCc1ccc(NO)cc1`, the mutagenic call (Test System: E. COLI, Strain/Indicator: WP2 UVRA, Metabolic Activation: NONE, Method: FLUCTUATION TEST) is “active; positive”.

Regarding `C=C(C)C(=O)OCC(OC1=CCCC1)OC1=CCCC1`, the mutagenic call under setting [15] was “inactive; negative”.

For the molecule `COc1cc(Oc2ccc(Cl)cc2Cl)ccc1N`, the mutagenic call reads like this: under setting [16], “inactive; negative”; under setting [17], “active; positive”; (Test System: AMES SALMONELLA TYPHIMURIUM, Strain/Indicator: YG1021, Metabolic Activation: S-9, Method: STANDARD PLATE) “inactive; negative”; (Test System: AMES SALMONELLA TYPHIMURIUM, Strain/Indicator: YG1024, Metabolic Activation: S-9, Method: STANDARD PLATE) “active; positive”; (Test System: AMES SALMONELLA TYPHIMURIUM, Strain/Indicator: YG1026, Metabolic Activation: S-9, Method: STANDARD PLATE) “active; positive”; (Test System: AMES SALMONELLA TYPHIMURIUM, Strain/Indicator: YG1029, Metabolic Activation: S-9, Method: STANDARD PLATE) “active; positive”.

As for `CC(C)(C)c1cc(-c2ccccc2)ccc1NO`, the mutagenic call under setting [1] is “active; positive”, the mutagenic call under setting [16] was “active; positive”, the mutagenic call under setting [2] is “active; positive” and the mutagenic call under setting [17] was “active; positive”.

Take `ONc1cccc2ccccc12`: the mutagenic call by setting is: under setting [1], “active; positive”; under setting [2], “active; positive”.

Regarding `c1ccc2c(c1)-c1ccc3ccc4cccc5cc-2c1c3c45`, the mutagenic call by setting is: under setting [2], “inactive; negative”; under setting [18], “active; positive”; under setting [19], “active; positive”; (Test System: AMES SALMONELLA TYPHIMURIUM, Strain/Indicator: TA1537, Metabolic Activation: RAT, LIVER, S-9, AROCLOR 1254, Method: STANDARD PLATE) “active; positive”; (Test System: AMES SALMONELLA TYPHIMURIUM, Strain/Indicator: TA1538, Metabolic Activation: RAT, LIVER, S-9, AROCLOR 1254, Method: STANDARD PLATE) “active; positive”.

In the case of `Cc1ccc2c(c1O)C(=O)c1ccccc1C2=O`, the mutagenic call runs as follows: under setting [4], “inactive; negative”; under setting [20], “active; positive”; under setting [7], “inactive; negative”; under setting [21], “active; positive”.

Turning to `CCN(CC)CC`, the mutagenic call is, setting by setting: under setting [3], “inactive; negative”; under setting [4], “inactive; negative”; under setting [5], “inactive; negative”; under setting [6], “inactive; negative”; under setting [7], “inactive; negative”; under setting [8], “inactive; negative”. Also, the mutagenic call under setting [9] is “inactive; negative”; the mutagenic call under setting [10] is “inactive; negative”; the mutagenic call under setting [11] is “inactive; negative”; the mutagenic call under setting [12] is “inactive; negative”; the mutagenic call under setting [13] is “inactive; negative”; the mutagenic call under setting [14] was “inactive; negative”.

Take `Cc1ccc2c(c1)c(=NC(=O)c1ccc([N+](=O)[O-])cc1)sn2C(=O)c1ccc([N+](=O)[O-])cc1`: under setting [17], the mutagenic call was “active; positive”.

Consider `CC(C)CCNc1snc2ccccc12`, for which the mutagenic call is, setting by setting: under setting [1], “inactive; negative”; under setting [16], “inactive; negative”; under setting [2], “inactive; negative”; under setting [17], “inactive; negative”; (Test System: AMES SALMONELLA TYPHIMURIUM, Strain/Indicator: TA1535, Metabolic Activation: NONE, Method: STANDARD PLATE) “inactive; negative”; (Test System: AMES SALMONELLA TYPHIMURIUM, Strain/Indicator: TA1535, Metabolic Activation: S-9, Method: STANDARD PLATE) “inactive; negative”. The mutagenic call was “inactive; negative” (Test System: AMES SALMONELLA TYPHIMURIUM, Strain/Indicator: TA1537, Metabolic Activation: NONE, Method: STANDARD PLATE) and “inactive; negative” (Test System: AMES SALMONELLA TYPHIMURIUM, Strain/Indicator: TA1537, Metabolic Activation: S-9, Method: STANDARD PLATE).

Regarding `c1ccc2c(c1)ccc1c3c(ccc12)CCC3`, the mutagenic call under setting [2] was “inactive; negative” and the mutagenic call under setting [19] was “inactive; negative”.

`Cc1c(O)cc2c(c1O)C(=O)c1ccccc1C2=O`: the mutagenic call is “inactive; negative” under setting [4]; “active; positive” (Test System: AMES SALMONELLA TYPHIMURIUM, Strain/Indicator: TA98, Metabolic Activation: RAT, LIVER, S-9, AROCLOR 1254, Method: PREINCUBATION); “active; positive” under setting [20]; “inactive; negative” under setting [7]; “active; positive” under setting [18]; “active; positive” under setting [21]. The mutagenic call was “inactive; negative” under setting [13]; “active; positive” (Test System: AMES SALMONELLA TYPHIMURIUM, Strain/Indicator: TA1537, Metabolic Activation: RAT, LIVER, S-9, AROCLOR 1254, Method: PREINCUBATION); “active; positive” (Test System: UDS RODENT HEPATOCYTES, Strain/Indicator: THY INCORP, Metabolic Activation: NONE).
